Consider two compounds from patent US12208167B1 (priority 2024, dated 2025).

The conditions of series [1]: single oral dose of 5 mg delayed release tablet, fasting.
Protocol: Male and female study participants (in equal proportions) were enrolled in the study. A total of 54 normal, healthy, adult, human study participants were enrolled. All subjects either received test product (test) or reference product (reference) in each period according to the randomization schedule after ensuring maintenance of pre-dose restrictions (fasting for 10 hours prior to administration in sitting posture with 240±2 mL of drinking water at ambient temperature).
A washout period of 7 days was observed between both study periods. Study restrictions with respect to fluid intake and sitting positions were implemented during the restriction periods throughout the study in all periods.
Study participants were instructed not to break, cut, and chew the tablet (test or reference) but to swallow whole and were asked to take it with the specified quantity of water. Water intake was not allowed for 1 hour before dosing until 1 hour after dosing except while administration of the dose. After dosing, the participants remained in sitting position for first two hours. On dosing days, meals were given as per the following schedule. […]
The actual post-dose time of collection was used in the calculation of the above pharmacokinetic parameters. Drug concentrations that are below limit of quantification (BLQ) were treated as “zero” in all pharmacokinetic and statistical calculations. […]
The conditions of series [2]: cited from earlier work.
For series [3] the following is noted: cited from earlier work. This is another data set of the same source.

SMILES strings stand for the structures. Where a name gives a salt, the structure may show the parent alone.

In the case of `COc1ccc2c3c1OC1C[C@@H](OC(=O)c4ccccc4)C=C[C@@]31CCN(C)C2` (stereo partly drawn) [benzgalantamine, (4aS,6R,8aS)-4a,5,9,10,11,12-hexahydro-3-methoxy-11-methyl-6H[1]benzofuro[3a,3,2-ef][2]benzazepin-6 benzoate gluconate salt], the “plasma benzgalantamine concentration profile after test tablet” value in series [1] is on record as “almost all values are zero or below limit of quantification (BLQ) at all times”. The gastrointestinal adverse events entry in series [2] (intranasal, twice daily dose of 11 mg) was “No gastrointestinal adverse events were observed”. In addition, the tolerability entry in series [2] (intranasal, up to a twice daily dose of 22 mg) is “well tolerated”. For the same compound, the “administered compound not cleaved to galantamine, observed in blood” value in series [2] (nasal administration, previous studies) is given as “up to 10%”.
`COc1ccc2c3c1O[C@H]1C[C@@H](O)C=C[C@@]31CCN(C)C2` [galantamine, (4aS,6R,8aS)-3-Methoxy-11-methyl-4a,5,9,10,11,12-hexahydro-6H-benzofuro[3a,3,2-ef][2]benzazepin-6-ol]: the “mean volume of distribution” value in series [3] (human, in vivo) was 175 L. Also, the tmax result in series [3] (oral galantamine) was “about 1 hour”.
